Results on three compounds are retold here after patent US6348201B2, “External composition for skin comprising sphingoglycolipid” (Kibun Food Chemifa Co., Ltd., priority 1997, dated 2002).

The experiment has as its system hairless mice (Skh:hr-1). The experiment is described as follows: Test for evaluating moisturizing and skin roughness prevention effects: transcutaneous transpiration measured with a hydrograph. The class given is in vivo. Conditions: 10th day, average of five mice, relative to control (0.5% Triton X-150, 9 g/m^2/h) as 100; Triton X-150 pretreated, middle-wavelength UV 0.15 J/cm^2, samples applied once a day on rear back. As for the experimental part: Twenty male hairless mice of 9-week old (Skh:hr-1, Nihon SLC) were treated with 0.5% Triton X-150 (50 μl) in a circular area of 2.5 cm diameter on their rear backs. The once-a-day application was continued for 5 days. On the 6th day and thereafter, middle-wavelength UV light was irradiated at a dose of 0.15 J/cm^2 using a SE lamp (manufactured by Toshiba Medical Instruments Co., Ltd.), and Samples 1 to 5 (dissolved in 0.5% Triton X-150) listed below and control sample (0.5% Triton X-150) were applied. These procedures were followed once a day and continued up to the 10th day. Five hairless mice were subjected to each test for Samples or the control.
After the middle-wavelength UV irradiation and the sample application were completed on the 10th day, amount of transcutaneous transpiration was measured using a hydrograph (model AMU-3: manufactured by Fauchon Co., Ltd.) to determine an average value for the five mice. Results were shown in the table below, where the values are expressed in relative values assuming the control (9 g/m^2/h) as 100.
In the case of `CCCCCCCCCCCCC/C=C\C(O)C(CO)NC(=O)O[C@@H]1O[C@H](CO)[C@H](O)[C@H](O)[C@H]1O` (stereo partly drawn) [Sample 5 (comparison), Galactocerebroside], the Relative transcutaneous transpiration is 91.

Regarding Ganglioside [Sample 4 (comparison)], the Relative transcutaneous transpiration is recorded as 89.

For “Glyceroglycolipid [Sample 3 (comparison)]”, the Relative transcutaneous transpiration is 123.
